# Where a SMILES comes first, the peptide text is derived from it. Bridges are numbered along the chain shown (N, C = ends). [ ]: non-standard residue; d: D form. The star is where a group is joined. hPhe(3,5-F2-4-CF3) = N[C@@H](CCc1cc(F)c(C(F)(F)F)c(F)c1)C(=O)O; hPhe(3-Cl-4-CF3) = N[C@@H](CCc1ccc(C(F)(F)F)c(Cl)c1)C(=O)O; NPrPhe(4-CF3) = CCCN[C@@H](Cc1ccc(C(F)(F)F)cc1)C(=O)O; NMeGly(cPent) = CN[C@H](C(=O)O)C1CCCC1; Ac4c(3,3-F2) = NC1(C(=O)O)CC(F)(F)C1; NMeD = CN[C@@H](CC(=O)O)C(=O)O; NMeL = CN[C@@H](CC(C)C)C(=O)O; Morpholide = C1CN(*)CCO1; Ac5c = NC1(C(=O)O)CCCC1; Aze = O=C(O)[C@@H]1CCN1; Sar = CNCC(=O)O
# Experiments:
# [1] = molecular target: GDP-bound HRAS wild-type protein (Homo sapiens, UniProt P01112); experiment: Binding to HRAS by surface plasmon resonance (SPR), Single Cycle Kinetics; conditions: for HRAS/KRAS (ratio of KD value with respect to HRAS to KD value with respect to KRAS): GDP-bound HRAS wild-type vs GDP-bound KRAS wild-type
# [2] = molecular target: GDP-bound NRAS wild-type protein (Homo sapiens, UniProt P01111); experiment: Binding to NRAS by surface plasmon resonance (SPR), Single Cycle Kinetics; conditions: for NRAS/KRAS (ratio of KD value with respect to NRAS to KD value with respect to KRAS): GDP-bound NRAS wild-type vs GDP-bound KRAS wild-type
# Sequence of GDP-bound NRAS wild-type protein (P01111 whole entry): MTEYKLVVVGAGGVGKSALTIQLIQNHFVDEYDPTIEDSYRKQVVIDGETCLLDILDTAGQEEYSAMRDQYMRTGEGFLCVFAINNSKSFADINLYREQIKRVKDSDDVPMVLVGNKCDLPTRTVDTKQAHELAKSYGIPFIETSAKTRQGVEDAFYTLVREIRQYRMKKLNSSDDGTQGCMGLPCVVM
# Sequence of GDP-bound HRAS wild-type protein (P01112 whole entry): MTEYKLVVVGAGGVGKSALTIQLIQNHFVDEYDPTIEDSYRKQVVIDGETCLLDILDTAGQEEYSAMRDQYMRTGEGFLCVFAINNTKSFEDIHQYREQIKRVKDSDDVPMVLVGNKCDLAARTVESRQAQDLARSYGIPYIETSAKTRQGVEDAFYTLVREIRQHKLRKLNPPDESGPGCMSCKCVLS
compound,measurement,setting,value
CCO[C@@H]1C[C@H]2C(=O)NC3(CCC3)C(=O)N(C)[C@@H](C3CCCC3)C(=O)N(C)[C@H](C(=O)N3CCOCC3)CC(=O)N(C)[C@@H](CC(C)C)C(=O)N[C@@H]([C@@H](C)CC)C(=O)N(C)CC(=O)N(C)[C@H]3CC=C(C)CN(C3=O)[C@@H](Cc3ccc(C(F)(F)F)cc3)C(=O)N(C)CC(=O)N[C@@H](CCc3cc(F)c(C(F)(F)F)c(F)c3)C(=O)N2C1 [PP0826],HRAS/KRAS (ratio of KD value with respect to HRAS to KD value with respect to KRAS),"[1]; KD ratio, SPR",B (a compound having 3 or more and less than 10 is denoted as B)
same,NRAS/KRAS (ratio of KD value with respect to NRAS to KD value with respect to KRAS),"[2]; KD ratio, SPR",C (A compound having a KD ratio of 0.1 or more and less than 3 is denoted as C)
"CCCN1C(=O)[C@@H]2CCN2C(=O)CN(C)C(=O)[C@H]([C@@H](C)CC)NC(=O)[C@H](CC(C)C)N(C)C(=O)C[C@@H](C(=O)N2CCOCC2)N(C)C(=O)[C@H](C2CCCC2)N(C)C(=O)C2(CC(F)(F)C2)NC(=O)[C@@H]2CCCN2C(=O)[C@H](CCc2cc(F)c(C(F)(F)F)c(F)c2)NC(=O)CN(C)C(=O)[C@@H]1Cc1ccc(C(F)(F)F)cc1 [PP0802] ([NMeL]I[Sar][Aze][NPrPhe(4-CF3)][Sar][hPhe(3,5-F2-4-CF3)]P[Ac4c(3,3-F2)][NMeGly(cPent)][NMeD]-Morpholide; lactam N-11)",HRAS/KRAS (ratio of KD value with respect to GDP-bound HRAS wild-type protein to KD value with respect to KRAS),"[1]; KD ratio HRAS/KRAS, SPR",B (a compound having 3 or more and less than 10 is denoted as B)
same,NRAS/KRAS (ratio of KD value with respect to GDP-bound NRAS wild-type protein to KD value with respect to KRAS),"[2]; KD ratio NRAS/KRAS, SPR",C (A compound having a KD ratio of 0.1 or more and less than 3 is denoted as C)
CC[C@H](C)[C@@H]1NC(=O)[C@H](CC)N(C)C(=O)C[C@@H](C(=O)N(C)C)N(C)C(=O)[C@H](C2CCCC2)N(C)C(=O)C2(CCC2)NC(=O)[C@@H]2COCCN2C(=O)[C@H](CCc2cc(F)c(C(F)(F)F)c(F)c2)NC(=O)CN(C)C(=O)[C@H](Cc2ccc(C(F)(F)F)cc2)N2CC/C=C\C[C@@H](C2=O)N(C)C(=O)CN(C)C1=O [PP1138],HRAS/KRAS (ratio of KD value with respect to HRAS to KD value with respect to KRAS),"[1]; KD ratio, SPR",A (a compound having 10 or more and less than 20 is denoted as A)
same,NRAS/KRAS (ratio of KD value with respect to NRAS to KD value with respect to KRAS),"[2]; KD ratio, SPR",A (a compound having 10 or more and less than 20 is denoted as A)
CCC[C@H]1C(=O)N[C@@H]([C@@H](C)CC)C(=O)N(C)CC(=O)N(C)[C@H]2C/C=C\CCN(C2=O)[C@@H](Cc2ccc(C(F)(F)F)cc2)C(=O)N(C)CC(=O)N[C@@H](CCc2ccc(Cl)c(OC)c2)C(=O)N2C[C@H](OCC)C[C@H]2C(=O)NC2(CC(C)(C)C2)C(=O)N(C)[C@@H](C(CC)CC)C(=O)N(C)[C@H](C(=O)N(C)C)CC(=O)N1C [PP2789],HRAS/KRAS (ratio of KD value with respect to GDP-bound HRAS wild-type protein to KD value with respect to KRAS),"[1]; KD ratio HRAS/KRAS, class symbols",A (a compound having 10 or more and less than 20 is denoted as A)
same,NRAS/KRAS (ratio of KD value with respect to GDP-bound NRAS wild-type protein to KD value with respect to KRAS),"[2]; KD ratio NRAS/KRAS, class symbols",AA (a compound having 20 or more is denoted as AA)
CCOC[C@H]1C(=O)N[C@@H]([C@@H](C)CC)C(=O)N(C)CC(=O)N(C)[C@H]2C/C=C\CCN(C2=O)[C@@H](Cc2ccc(C)cc2)C(=O)N(C)CC(=O)N[C@@H](CCc2ccc(C(F)(F)F)c(Cl)c2)C(=O)N2C[C@@H](C)C[C@H]2C(=O)NC2(CC(C)(C)C2)C(=O)N(C)[C@@H](C2CCCC2)C(=O)N(C)[C@H](C(=O)N(CC)CC)CC(=O)N1C [PP2465],HRAS/KRAS (ratio of KD value with respect to HRAS to KD value with respect to KRAS),[1]; SPR,A (a compound having 10 or more and less than 20 is denoted as A)
same,NRAS/KRAS (ratio of KD value with respect to NRAS to KD value with respect to KRAS),[2]; SPR,AA (a compound having 20 or more is denoted as AA)
CCCN1C(=O)CN(C)C(=O)CN(C)C(=O)[C@H]([C@@H](C)CC)NC(=O)[C@H](CC(C)C)N(C)C(=O)C[C@@H](C(=O)N(C)C)NC(=O)[C@H](C2CCCC2)N(C)C(=O)C2(CCCC2)NC(=O)[C@@H]2CCCN2C(=O)[C@H](CCc2ccc(C(F)(F)F)c(Cl)c2)NC(=O)CN(C)C(=O)[C@@H]1Cc1ccc(C(F)(F)F)cc1 [PP0355] ([NMeL]I[Sar][Sar][NPrPhe(4-CF3)][Sar][hPhe(3-Cl-4-CF3)]P[Ac5c][NMeGly(cPent)]D-NMe2; lactam N-11),HRAS/KRAS (ratio of KD for GDP-bound HRAS wild-type to KD for KRAS),"[1]; KD ratio HRAS/KRAS, SPR",B (a compound having 3 or more and less than 10 is denoted as B)
same,NRAS/KRAS (ratio of KD for GDP-bound NRAS wild-type to KD for KRAS),"[2]; KD ratio NRAS/KRAS, SPR",B (a compound having 3 or more and less than 10 is denoted as B)
CC[C@H](C)[C@@H]1NC(=O)[C@H](CC(C)C)N(C)C(=O)C[C@@H](C(=O)N(C)C)N(C)C(=O)[C@H](C2CCCC2)N(C)C(=O)C2(CCCC2)NC(=O)[C@@H]2CCCN2C(=O)[C@H](CCc2ccc(C(F)(F)F)c(Cl)c2)NC(=O)CN(C)C(=O)[C@H](Cc2ccc(C)cc2)N2CC=C(C)C[C@@H](C2=O)N(C)C(=O)CN(C)C1=O [PP0620],HRAS/KRAS (ratio of KD value with respect to GDP-bound HRAS wild-type protein to KD value with respect to KRAS),"[1]; KD ratio HRAS/KRAS, SPR",C (A compound having a KD ratio of 0.1 or more and less than 3 is denoted as C)
same,NRAS/KRAS (ratio of KD value with respect to GDP-bound NRAS wild-type protein to KD value with respect to KRAS),"[2]; KD ratio NRAS/KRAS, SPR",C (A compound having a KD ratio of 0.1 or more and less than 3 is denoted as C)

# Reference: US20250230193A1, “CYCLIC COMPOUND HAVING SELECTIVE KRAS INHIBITORY EFFECT ON HRAS AND NRAS” (CHUGAI SEIYAKU KABUSHIKI KAISHA, priority 2022, published 2025)
